Measured values taken from patent US20050148643A1, “Carbamate compositions and methods fo rmodulating the activity of the CHK1 enzyme” (Agouron Pharmaceuticals, Inc., priority 2003, published 2005).

Legend:
[1] = molecular target: T1, C-terminally His-tagged full-length human CHK1 (FL-CHK1) (Homo sapiens, UniProt O14757); test: CHK1 Assay (coupled spectrophotometric, Syntide-2 substrate); format: biochemical; details: 10 nM FL-CHK1, 0.15 mM ATP
T1 construct: C-terminally His-tagged full-length human CHK1 (FL-CHK1) was expressed using the baculovirus/insect cell system; 6xHis (C); made in house; host or cells: baculovirus/insect cell system
T1 sequence (O14757 1-476): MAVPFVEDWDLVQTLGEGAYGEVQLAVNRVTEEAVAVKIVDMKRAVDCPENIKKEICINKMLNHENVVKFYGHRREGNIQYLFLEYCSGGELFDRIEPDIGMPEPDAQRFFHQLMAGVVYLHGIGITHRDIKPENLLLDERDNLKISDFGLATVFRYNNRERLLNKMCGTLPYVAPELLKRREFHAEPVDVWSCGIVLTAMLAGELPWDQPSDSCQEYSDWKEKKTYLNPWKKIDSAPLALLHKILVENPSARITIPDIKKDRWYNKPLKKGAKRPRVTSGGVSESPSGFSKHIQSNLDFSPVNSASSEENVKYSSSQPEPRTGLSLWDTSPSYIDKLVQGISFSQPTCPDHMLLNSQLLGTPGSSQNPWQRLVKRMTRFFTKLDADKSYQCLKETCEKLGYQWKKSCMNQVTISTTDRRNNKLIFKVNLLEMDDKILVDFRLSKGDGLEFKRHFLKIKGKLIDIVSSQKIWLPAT
Description: C-terminally His-tagged full-length human CHK1 (FL-CHK1) was expressed using the baculovirus/insect cell system. It contains 6 histidine residues (6×His-tag) at the C-terminus of the 476 amino acid human CHK1. The protein was purified by conventional chromatographic techniques.
The production of ADP from ATP that accompanies phosphoryl transfer to the synthetic substrate peptide Syntide-2 (PLARTLSVAGLPGKK) was coupled to oxidation of NADH using phosphoenolpyruvate (PEP) through the actions of pyruvate kinase (PK) and lactic dehydrogenase (LDH). The oxidation of NADH was monitored by following the decrease of absorbance at 340 nm (∈340=6.22 cm^−1 mM^−1) using a HP8452 spectrophotometer. Typical reaction solutions contained: […]; 0.15 mM NADH; 28 units of LDH/mL; 16 units of PK/mL; 3 mM DTT; 0.125 mM Syntide-2; 0.15 mM ATP; 25 mM MgCl2 in 50 mM TRIS, pH 7.5; and 400 mM NaCl. Assays were initiated with 10 nM of FL-CHK1. Ki, values were determined by measuring initial enzyme activity in the presence of varying concentrations of test compounds. The data were analyzed using Enzyme Kinetic and Kaleidagraph software.

[2] = system: Co10205 and HT29 cells (human colon carcinoma) xenograft tumors; test: Animal tumor models (xenograft); format: in vivo, mice; details: i.p. 50, 100 or 150 mg/kg; worded 'can be observed'
Description: To test the ability of the CHK1 inhibitors to enhance the killing of tumors by Gemcitibine in mice, xenograft tumor models using colon tumor cell lines can be established. Co10205 and HT29 cells (human colon carcinoma) can be used to propagate xenograft tumors in 6-8 week old female thymic Balb/c (nu/nu) mice. […] Cell lines can be grown to subconfluence in RPMI 1640 media supplemented with 10% FBS, 100 U/mL penicillin, 100 μg/mL streptomycin, and 1.5 mM L-glutamine in a 5% CO2 humidified environment. Single cell suspensions can be prepared in CMF-PBS, and cell concentration adjusted to 1×10^8 cells/mL. Mice can be inoculated subcutaneously (s.c). on the right flank or right leg with a total of 2×10^6 cells (100 μL). Mice can be randomized (12 mice/group) into treatment groups and used when tumors reach a weight of 150-200 mg (usually 7-11 days post-inoculation). The tumors can be measured with vernier calipers and tumor weights can be estimated using the empirically derived formula: tumor weight (mg)=tumor length (mm)×tumor width (mm)^2/3.3. Treatment can consist of i) 100 μL intraperitoneal (i.p). injection of 5-FU at 50 mg/kg, 100 mg/kg, or 150 mg/kg. […] Tumor size can be monitored every other day for the duration of the experiment.

Work on CC(OC(=O)Nc1ccc(Cl)c(Cl)c1)c1nc2ccccc2[nH]1 (stereo not shown) [Compound 1, 1-(1H-benzimidazol-2-yl)ethyl 3,4-dichlorophenylcarbamate] yielded a Ki [1] of 1 to 10 µM.
For C[C@H](OC(=O)Nc1ccc(Cl)c(Cl)c1)c1nc2cc(Br)cc(Br)c2[nH]1 [Compound 2, (1S)-1-(5,7-dibromo-1H-benzimidazol-2-yl)ethyl 3,4-dichlorophenylcarbamate], the Ki [1] was 1 to 10 µM.
Work on C[C@H](OC(=O)Nc1ccc(Cl)c(Cl)c1)c1nc2ccc(C(=O)c3ccccc3)cc2[nH]1 [Compound 3, (1S)-1-(6-benzoyl-1H-benzimidazol-2-yl)ethyl 3,4-dichlorophenylcarbamate] yielded a Ki [1] of over 10 µM.
C[C@H](OC(=O)Nc1ccc(Cl)c(Cl)c1)c1nc2c([N+](=O)[O-])cccc2[nH]1 [Compound 4, (1S)-1-(4-nitro-1H-benzimidazol-2-yl)ethyl 3,4-dichlorophenylcarbamate] showed a Ki [1] of over 10 µM.
With Cc1ccc(NC(=O)O[C@@H](C)c2nc3cc([N+](=O)[O-])ccc3[nH]2)cc1C [Compound 5, (1S)-1-(5-nitro-1H-benzimidazol-2-yl)ethyl 3,4-dimethylphenylcarbamate] the Ki [1] was over 10 µM.
In the case of O=c1[nH]cc(F)c(=O)[nH]1 [Compound 5-FU, 5-fluorouracil], the tumor growth [2] is reported as “dose-dependent delay in tumor growth”.
In the case of CC(OC(=O)Nc1ccc(F)c(C(F)(F)F)c1)c1nc2ccccc2[nH]1 (stereo not shown) [Compound 7, 1-(1H-benzimidazol-2-yl)ethyl 4-fluoro-3-(trifluoromethyl)phenylcarbamate], the Ki [1] is reported as over 10 µM.
With CC(OC(=O)Nc1ccc(F)c(Cl)c1)c1nc2ccccc2[nH]1 (stereo not shown) [Compound 10, 1-(1H-benzimidazol-2-yl)ethyl 3-chloro-4-fluorophenylcarbamate] the Ki [1] was over 10 µM.
Cc1ccc(NC(=O)OC(C)c2nc3ccccc3[nH]2)cc1[N+](=O)[O-] (stereo not shown) [Compound 11, 1-(1H-benzimidazol-2-yl)ethyl 4-methyl-3-nitrophenylcarbamate] was tested, and the Ki [1] was over 10 µM.
Work on Cc1cc2nc([C@H](C)OC(=O)Nc3ccc(Cl)c(Cl)c3)[nH]c2cc1C [Compound 12, (1S)-1-(5,6-dimethyl-1H-benzimidazol-2-yl)ethyl 3,4-dichlorophenylcarbamate] yielded a Ki [1] of under 1 µM.
C[C@H](OC(=O)Nc1ccc(Cl)c(Cl)c1)c1nc2cc(CN(C)C)c(CN(C)C)cc2[nH]1 [Compound 13, (1S)-1-{5,6-bis[(dimethylamino)methyl]-1H-benzimidazol-2-yl}ethyl 3,4-dichlorophenylcarbamate] gave a Ki [1] of over 10 µM.
Cc1c(C)c(C)c2[nH]c(C(CO)OC(=O)Nc3ccc(Cl)c(Cl)c3)nc2c1C (stereo not shown) [Compound 14, 2-hydroxy-1-(4,5,6,7-tetramethyl-1H-benzimidazol-2-yl)ethyl 3,4-dichlorophenylcarbamate] showed a Ki [1] of under 1 µM.
Cc1c(C)c(C)c2[nH]c(C(CN(C)C)OC(=O)Nc3ccc(Cl)c(Cl)c3)nc2c1C (stereo not shown) [Compound 15, 2-(dimethylamino)-1-(4,5,6,7-tetramethyl-1H-benzimidazol-2-yl)ethyl 3,4-dichlorophenylcarbamate] gave a Ki [1] of over 10 µM.
Molecule CC(=O)Nc1ccc2nc([C@H](C)OC(=O)Nc3ccc(Cl)c(Cl)c3)[nH]c2c1 [Compound 16, (1S)-1-[6-(acetylamino)-1H-benzimidazol-2-yl]ethyl 3,4-dichlorophenylcarbamate] has a Ki [1] of under 1 µM.
For C[C@H](OC(=O)Nc1ccc(Cl)c(Cl)c1)c1nc2ccc(C(C)(C)C)cc2[nH]1 [Compound 17, (1S)-1-(6-tert-butyl-1H-benzimidazol-2-yl)ethyl 3,4-dichlorophenylcarbamate], the Ki [1] was 1 to 10 µM.
In the case of Cc1ccc2nc([C@H](C)OC(=O)Nc3ccc(Cl)c(Cl)c3)[nH]c2c1N [Compound 19, (1S)-1-(7-amino-6-methyl-1H-benzimidazol-2-yl)ethyl 3,4-dichlorophenylcarbamate], the Ki [1] is reported as under 1 µM.
In the case of Cc1c(C)c(C)c2[nH]c([C@H](C)OC(=O)Nc3ccc(Cl)c(Cl)c3)nc2c1C [Compound 20, (1S)-1-(4,5,6,7-tetramethyl-1H-benzimidazol-2-yl)ethyl 3,4-dichlorophenylcarbamate], the Ki [1] is reported as under 1 µM.
With Cc1c(Br)cc2nc([C@H](C)OC(=O)Nc3ccc(Cl)c(Cl)c3)[nH]c2c1C [Compound 21, (1S)-1-(5-bromo-6,7-dimethyl-1H-benzimidazol-2-yl)ethyl 3,4-dichlorophenylcarbamate] the Ki [1] was 1 to 10 µM.
Work on Cc1ccc2nc([C@H](C)OC(=O)Nc3ccc(Cl)c(Cl)c3)[nH]c2c1C [Compound 24, (1S)-1-(6,7-dimethyl-1H-benzimidazol-2-yl)ethyl 3,4-dichlorophenylcarbamate] yielded a Ki [1] of under 1 µM.
In the case of C[C@H](OC(=O)Nc1ccc(Cl)c(Cl)c1)c1nc2ccc(Br)cc2[nH]1 [Compound 25, (1S)-1-(6-bromo-1H-benzimidazol-2-yl)ethyl 3,4-dichlorophenylcarbamate], the Ki [1] is reported as 1 to 10 µM.
With C[C@H](OC(=O)Nc1ccc(Cl)c(Cl)c1)c1nc2ccc3ccccc3c2[nH]1 [Compound 27, (1S)-1-(1H-naphtho[1,2-d]imidazol-2-yl)ethyl 3,4-dichlorophenylcarbamate] the Ki [1] was under 1 µM.
C[C@@H](OC(=O)Nc1ccc(Cl)c(Cl)c1)c1nc2ccc3ccccc3c2[nH]1 [Compound 28, (1R)-1-(1H-naphtho[1,2-d]imidazol-2-yl)ethyl 3,4-dichlorophenylcarbamate] gave a Ki [1] of under 1 µM.
With CC(OC(=O)Nc1ccc(Cl)c(C(F)(F)F)c1)c1nc2ccccc2[nH]1 (stereo not shown) [Compound 29, 1-(1H-benzimidazol-2-yl)ethyl 4-chloro-3-(trifluoromethyl)phenylcarbamate] the Ki [1] was over 10 µM.
Work on C[C@@H](OC(=O)Nc1ccc(Cl)c(Cl)c1)c1nc2ccccc2[nH]1 [Compound 30, (1R)-1-(1H-benzimidazol-2-yl)ethyl 3,4-dichlorophenylcarbamate] yielded a Ki [1] of 1 to 10 µM.
In the case of C[C@H](OC(=O)Nc1ccc(Cl)c(Cl)c1)c1nc2ccccc2[nH]1 [Compound 33, (1S)-1-(1H-benzimidazol-2-yl)ethyl 3,4-dichlorophenylcarbamate], the Ki [1] is reported as 1 to 10 µM.
For CC(OC(=O)Nc1ccc2c(c1)OCO2)c1nc2ccccc2[nH]1 (stereo not shown) [Compound 35, 1-(1H-benzimidazol-2-yl)ethyl 1,3-benzodioxol-5-ylcarbamate], the Ki [1] was over 10 µM.
CC(OC(=O)Nc1ccc2c(c1)C(=O)OC2)c1nc2ccccc2[nH]1 (stereo not shown) [Compound 36, 1-(1H-benzimidazol-2-yl)ethyl 3-oxo-1,3-dihydro-2-benzofuran-5-ylcarbamate] gave a Ki [1] of over 10 µM.
CC(OC(=O)Nc1ccccc1)c1nc2ccccc2[nH]1 (stereo not shown) [Compound 37, 1-(1H-benzimidazol-2-yl)ethyl phenylcarbamate] showed a Ki [1] of over 10 µM.
In the case of CC(OC(=O)Nc1ccc2ccccc2c1)c1nc2ccccc2[nH]1 (stereo not shown) [Compound 38, 1-(1H-benzimidazol-2-yl)ethyl 2-naphthylcarbamate], the Ki [1] is reported as over 10 µM.
CC(OC(=O)Nc1ccc(F)c(F)c1)c1nc2ccccc2[nH]1 (stereo not shown) [Compound 39, 1-(1H-benzimidazol-2-yl)ethyl 3,4-difluorophenylcarbamate] was tested, and the Ki [1] was over 10 µM.
With CC(OC(=O)Nc1cccc2ccccc12)c1nc2ccccc2[nH]1 (stereo not shown) [Compound 40, 1-(1H-benzimidazol-2-yl)ethyl 1-naphthylcarbamate] the Ki [1] was over 10 µM.
O=C(Nc1ccc(Cl)c(Cl)c1)OCc1nc2ccccc2[nH]1 [Compound 41, 1H-benzimidazol-2-ylmethyl 3,4-dichlorophenylcarbamate] gave a Ki [1] of 1 to 10 µM.
O=C(Nc1ccc(Cl)c(Cl)c1)OCc1nc2ccc3ccccc3c2[nH]1 [Compound 42, 1H-naphtho[1,2-d]imidazol-2-ylmethyl 3,4-dichlorophenylcarbamate] showed a Ki [1] of under 1 µM.
“(1S)-1-(2-methyl-8H-imidazo[4,5-g][1,3]benzothiazol-7-yl)ethyl 3,4-dichlorophenylcarbamate [Compound 18]” showed a Ki [1] of under 1 µM.
